Test results as given in patent US20210333284A1, “METHODS AND MATERIALS FOR LARGE-SCALE ASSESSMENT OF LIGAND BINDING SELECTIVITY OF G-QUADRUPLEX RECOGNITION USING CUSTOM G4 MICROARRAYS” (Purdue Research Foundation, priority 2020, published 2021).

How the values were obtained:
[1] = test system: basket-type (wtTel22 in Na+) and hybrid-type (Tel26 in K+) human telomeric G4s; experiment: 1D 1H NMR titration with telomeric G4s; assay type: binding
Excerpt: (§1) The binding selectivity of BMVC to G4 structures and flanking sequences was confirmed by NMR titration experiments of BMVC to different G4 sequences, including parallel-stranded MYC_14/23T G4 and its 5′- and 3′-flanking variants, VEGF and MYC1234 G4s, basket-type human telomeric G4 (wtTel22 in Na+), and hybrid type human telomeric G4 (Tel26 in K+) (FIG. 12). BMVC binds best to the MYC_14/23T G4, as indicated by well-resolved imino proton peaks for BMVC complexes (FIG. 12, panel a). […] In contrast, the 3′-end binding of BMVC is sensitive to the mutations at the 3′-flanking sequence, with a clear preference for the 3′-flanking T. In addition, BMVC prefers at least two flanking bases for a specific binding.
(§2) G4 DNA oligonucleotides were synthesized using β-cyanoethylphosphoramidite solid-phase chemistry (Applied Biosystem Expedite 8909), as described previously. NMR experiments were performed on a Bruker AV-III-500-HD equipped with a BBFO Z-gradient cryoprobe. DNA samples were heated to 95° C. for 5 min, then cooled slowly for G4 formation. For the 1D 1H NMR experiments, samples contained 100-250 μM DNA in an appropriate buffer solution with 10% D2O for the lock. The titrations were performed by adding increasing amounts of the compounds to the DNA samples in solution.

[2] = test system: parallel-stranded MYC_14/23T, MYC1234 and VEGF G4s; experiment: 1D 1H NMR titration with parallel G4s; assay type: binding, human
Excerpt: as §1, §2

human telomeric G4s = experiment: G4 microarray competition with Cy5-PDS, telomeric G4s; assay type: binding; conditions: 1 μM BMVC and 1 μM Cy5-PDS
Protocol: Custom G4 microarrays have been designed that contain a total of 19,249 G4 DNA sequences [31, the entirety of disclosure of which, including the supplemental information, is incorporated herein by reference]. The G4 microarrays were created by covalently attaching thousands of unique G4-forming DNA 60-mers to a glass surface. Pyridostatin (PDS) is a known G4-interactive compound. […] To test the binding selectivity of BMVC, competition experiments using custom G4 microarrays were performed. The addition of potassium-containing solution to G4-forming oligonucleotides induced G4 formation. […] After washing to remove the unbound Cy5-PDS and BMVC, the fluorescence intensities of Cy5-PDS bound to DNA oligonucleotides were detected using a fluorescence scanner. The binding selectivity of BMVC to different G4 structures was assessed by measuring the relative fluorescence intensity reduction of Cy5-PDS as BMVC concentration increased.
To determine the G4-binding selectivity of BMVC, the BMVC binding to known G4 structures was examined, including 7 well-studied MYC promoter G4 sequences, 15 other oncogene promoter G4 sequences, and 3 human telomeric G4 sequences (TABLE 4). BMVC competes with the binding of Cy5-PDS to most G4 sequences in a dose-dependent manner as indicated by reduced fluorescence intensities (FIG. 8a). […]

C[n+]1ccc(/C=C/c2ccc3[nH]c4ccc(/C=C/c5cc[n+](C)cc5)cc4c3c2)cc1.[I-].[I-] [BMVC, 3,6-Bis(1-methyl-4-vinylpyridinium) carbazole diiodide]
binding to basket-type or hybrid-type human telomeric G4s by NMR titration [1]: did not show specific binding
binding to MYC1234 and VEGF G4 by NMR titration ([2]; other parallel G4s): bind well
binding to MYC_14/23T G4 by NMR titration ([2]; well-resolved imino proton peaks, 95 mM K+, pH 7, 25° C.): binds best
inhibition of Cy5-PDS binding to human telomeric G4s (human telomeric G4s): significantly inhibited
